Values of other authors, collected in patent publication US20200113856A1, “NON-PRESCRIPTION MOTION SICKNESS MEDICATION CONTAINING AN ANALGESIC, AN H2 BLOCKER, AND AT LEAST ONE ANTACID” (priority 2018, published 2020).
Values belong to the compound of their own block, whether it stands above or below them.

How the values were obtained:
platelet thromboxane = settings: high-dose, throughout the dosing interval
risk of stroke = settings: in vivo
motion sickness = settings: patch worn behind the ear
blood pressure = settings: several types of rat models susceptible to salt-sensitive hypertension, in contrast with sodium chloride
histamine H2 receptors = histamine H2 receptors (Homo sapiens, UniProt P25021); settings: equimolar basis
histamine H2 receptors, sequence (P25021 whole entry): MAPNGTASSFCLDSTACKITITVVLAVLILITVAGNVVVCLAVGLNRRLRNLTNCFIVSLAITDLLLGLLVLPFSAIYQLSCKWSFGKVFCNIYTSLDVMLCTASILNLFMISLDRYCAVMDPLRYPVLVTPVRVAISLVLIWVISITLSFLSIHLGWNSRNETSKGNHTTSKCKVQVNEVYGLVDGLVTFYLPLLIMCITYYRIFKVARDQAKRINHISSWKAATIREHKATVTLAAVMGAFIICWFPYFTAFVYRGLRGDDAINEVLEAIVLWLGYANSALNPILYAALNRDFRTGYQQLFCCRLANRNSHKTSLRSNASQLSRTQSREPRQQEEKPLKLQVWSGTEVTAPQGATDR

reflux esophagitis = settings: patients with reflux esophagitis

Compound: CC(=O)Nc1ccc(O)cc1 [Acetaminophen]
duration of effects (pain or fever; in vivo): between two and four hours

Compound: CC(=O)Oc1ccccc1C(=O)O [Aspirin, acetylsalicylic acid]
time until effects begin (pain or fever; for pain or fever): ≤ 30 min

Compound: COc1ccc2cc([C@H](C)C(=O)O)ccc2c1 [Naproxen]
suppression of platelet thromboxane (platelet thromboxane): near-complete suppression | associated risk of stroke compared with ibuprofen (risk of stroke): roughly 50%

Compound: CN1[C@@H]2C[C@@H](OC(=O)[C@H](CO)c3ccccc3)C[C@H]1[C@@H]1O[C@@H]12 [Scopolamine]
duration of effectiveness of patch (motion sickness): three days

Compound: O=C([O-])O.[Na+] [Sodium bicarbonate, sodium hydrogen carbonate]
effect on blood pressure (blood pressure): no effect

times more potent than cimetidine (histamine H2 receptors): ~20 times | times more potent than nizatidine (histamine H2 receptors): approximately 7.5 times | times more potent than ranitidine (histamine H2 receptors): approximately 7.5 times
Compound: NC(N)=Nc1nc(CSCCC(N)=NS(N)(=O)=O)cs1 [famotidine]

Compound: CNC(=C[N+](=O)[O-])NCCSCc1csc(CN(C)C)n1 [nizatidine]
effectiveness as maintenance therapy versus famotidine (reflux esophagitis): more effective H2RA than famotidine
